According to patent US20190298796A1, “Therapeutic Compositions from the Brevinin-1 Family of Peptides and Uses Thereof” (priority 2016, published 2019):
≈ marks a conversion by molar mass, not a printed value. Residues, ends and D or L forms follow the SMILES beside them.

Tests used:
VRE ATCC 29212 = details: lowest concentration killing entire bacteria, 24 hrs
Description: (§1) Antimicrobial activity: Broth dilution method [39] was used to assess the antimicrobial activity of the peptides. Bacterial strains used for in vitro antibacterial assay were Staphylococcus aureus (MTCC 9542), Bacillus subtilis (MTCC 14416), Bacillus coagulans (ATCC 7050), Methicillin-resistant Staphylococcus aureus (MRSA) (ATCC 43300), Streptococcus mutans (MTCC 497), Streptococcus gordonii (MTCC 2695), Vibrio cholerae (MCV09), Escherichia coli (ATCC 25922), Vancomycin-resistant enterococcus (VRE) (ATCC 29212) and gram-negative fish pathogens Aeromonas hydrophila (ATCC 7966) and Aeromonas sobria (ATCC 43979). Bacterial cultures were grown in Muller Hinton broth (MHB) (Hi-media) by overnight incubation at 37° C. with constant shaking. Microbial cultures having 10^6 CFU/ml were made from OD600: 0.6 cultures. 400 μM stock solutions of peptides were prepared in autoclaved double distilled water and diluted in MHB to make concentrations ranging from 0.7 to 100 μM. Bacterial inoculum without peptide was used as the negative control.

[1] = system: Bacillus subtilis MTCC 14416; type: cell-based; details: lowest concentration killing entire bacteria, 24 hrs
Description: as §1

[2] = system: Staphylococcus aureus MTCC 9542; type: cell-based; details: lowest peptide concentration required to kill entire bacteria, 24 hrs, NA = not active up to the highest concentration tested
Description: as §1

gram-negative bacteria = assay: MIC range over the tested gram-negative bacteria; type: cell-based
Description: as §1

[3] = system: Bacillus coagulans ATCC 7050; type: cell-based; details: lowest concentration killing entire bacteria, 24 hrs
Description: as §1

human erythrocytes = type: cell-based; details: 60 min, at the peptide's MIC for Staphylococcus aureus MTCC 9542 (MIC in parenthesis)
Description: Hemolytic Activity: Hemolytic assay was carried out as previously described. Briefly, 10% (v/v) suspensions of fresh human erythrocytes in phosphate buffered saline (pH 7.2) were incubated with different concentrations (100 μM-0.7 μM) of B1/1 COOH & B1/2 COOH, B1/1 CONH2 & B1/2 CONH2 and cyclic B1/1 CONH2 & cyclic B1/2 CONH2 and incubated at 3^7° C. for 60 min. The cells were centrifuged (3000×g) for 5 min, and absorbance of the supernatant was measured at 595 nm. Hemolysis caused by 10% Triton X-100 was taken as positive control. Percentage hemolysis was calculated by measuring the mean amount of hemoglobin released as a result of lysis of erythrocyte from three independent experiments.

MRSA ATCC 43300 = type: cell-based, Methicillin-resistant Staphylococcus aureus; details: lowest concentration killing entire bacteria, 24 hrs
Description: as §1

CC[C@H](C)[C@H](NC(=O)CNC(=O)[C@@H]1CCCN1C(=O)[C@H](Cc1ccccc1)NC(=O)[C@@H](N)Cc1ccccc1)C(=O)N[C@H](C(=O)N[C@@H](CCCCN)C(=O)N[C@H](C(=O)N[C@@H](C)C(=O)NCC(=O)N[C@@H](C)C(=O)N[C@H](C(=O)N[C@@H](CC(C)C)C(=O)N1CCC[C@H]1C(=O)N[C@H](C(=O)N[C@@H](C)C(=O)N[C@H](C(=O)N[C@@H](CS)C(=O)N[C@@H](C)C(=O)N[C@H](C(=O)N[C@H](C(=O)N[C@@H](CCCCN)C(=O)N[C@@H](CCCNC(=N)N)C(=O)N[C@@H](CS)C(=O)O)[C@@H](C)O)[C@@H](C)CC)[C@@H](C)CC)[C@@H](C)O)[C@@H](C)CC)C(C)C)[C@@H](C)CC [B1/2 COOH] (H-FFPGIIKVAGAILPTAICAITKRC-OH; N-terminus assumed)
MIC (VRE ATCC 29212): 50 µM (≈ 125 µg/mL)
MIC [1]: 67.5 µM (≈ 169 µg/mL)
MIC [2]: 12.5 µM (≈ 31.3 µg/mL)
Activity against gram-negative bacteria (MIC range) (gram-negative bacteria): not with gram-negative bacteria
MIC [3]: 25 µM (≈ 62.6 µg/mL)
Percentage hemolysis at MIC (human erythrocytes): 25%
MIC (MRSA ATCC 43300): 30 µM (≈ 75.1 µg/mL)
